Measurements as given in patent publication US9526782B2, “Pharmaceutical compositions comprising inhibitors of zinc-ZIP8-MTF1 as active ingredients for preventing or treating a joint disease” (GWANGJU INSTITUTE OF SCIENCE AND TECHNOLOGY, priority 2014, dated 2016).
Where two headings read alike, the source gives them in different places. One block for each molecule: values may come before it.

Columns and labels:
[1] = test system: matrix-degrading enzymes (MMP3, MMP9, MMP12, MMP13, and ADAMTS5); assay: mRNA (qRT-PCR) and protein (Western blotting) levels of matrix-degrading enzymes in chondrocytes; type: cell-based, mouse; details: for inhibitory effects of TPEN on the ZIP8-mediated expression of matrix-degrading enzymes, effect of pre-incubation of TPEN with the metal salt: Ad-Zip8 chondrocytes, TPEN 1 μM pre-incubated with 1 μM metal ion; for expression of matrix-degrading enzymes caused by the substance itself: chondrocytes, metal salts 100 μM (CdCl2 1 μM); for Ad-Mtf1-induced upregulation of matrix-degrading enzymes, effect of the test agent: chondrocytes infected with Ad-Mtf1; for upregulation of MMP3, MMP13, and ADAMTS5 by IL1β, effect of the test agent: chondrocytes treated with IL1β
Method: (§1) Adenoviruses expressing mouse Zip8 (Ad-Zip8) and Mtf1 (Ad-Mtf1) were purchased from Vector Biolabs. Mouse articular chondrocytes were cultured for 2 days, infected with empty virus (Ad-C), Ad-Zip8, or Ad-Mtf1 for 2 hours at the indicated multiplicity of infection (MOI), and cultured for 24 hours, followed by further analyses.
(§2) Total RNA was extracted from primary cultured chondrocytes using the TRI reagent (Molecular Research Center Inc.). For the isolation of RNA from knee joints, cartilage tissues were scraped with a blade to remove cartilage, and RNA was isolated using the TRI reagent and Purelink RNA mini kit (Ambion). The RNA was reverse transcribed, and the resulting cDNA was amplified by PCR.
(§3) Transcript levels were quantified by qRT-PCR. siRNAs targeting Zip8 and Mtf1 were obtained from Dharmacon and transfected using Lipofectamine 2000. Non-targeting (scrambled) siRNA was used as a negative control. Chondrocytes were transfected by incubating for 6 hours with siRNA and Lipofectamine 2000 (Invitrogen), and infected with adenoviruses as described above. Therapeutic antibodies for obstruction of ZIP8 function were purchased from Santa Cruz Biotechnology and MyBioSource Company, and treated in chondrocytes for 24 hours.
Total cell lysates were prepared in lysis buffer (150 mM NaCl, 1% NP-40, 50 mM Tris, 5 mM NaF) and used to detect cellular proteins (ZIP8, MTF1, and ERK). Secreted proteins (MMP3, MMP13, and ADAMTS5) were detected after trichloroacetic acid (TCA) precipitation from 900 μl of serum-free conditioned medium. All lysis buffers contained a cocktail of protease inhibitors and phosphatase inhibitors (Roche).

[2] = molecular target: T1, ZIP8 (Mus musculus, UniProt Q91W10); assay: Zn^2+ imaging and quantitation with FluoZin-3 AM in primary cultured articular chondrocytes; type: cell-based; details: for cellular Zn^2+ level, effect of the substance itself: chondrocytes; for ZIP8-mediated increase in Zn^2+ influx: chondrocytes infected with Ad-Zip8, with the test agent; for IL1β-caused influx of Zn^2+ in chondrocytes, effect of the test agent: chondrocytes treated with IL1β
T1 construct: host or cells: primary mouse articular chondrocytes infected with Ad-Zip8
T1 sequence (Q91W10 20-462): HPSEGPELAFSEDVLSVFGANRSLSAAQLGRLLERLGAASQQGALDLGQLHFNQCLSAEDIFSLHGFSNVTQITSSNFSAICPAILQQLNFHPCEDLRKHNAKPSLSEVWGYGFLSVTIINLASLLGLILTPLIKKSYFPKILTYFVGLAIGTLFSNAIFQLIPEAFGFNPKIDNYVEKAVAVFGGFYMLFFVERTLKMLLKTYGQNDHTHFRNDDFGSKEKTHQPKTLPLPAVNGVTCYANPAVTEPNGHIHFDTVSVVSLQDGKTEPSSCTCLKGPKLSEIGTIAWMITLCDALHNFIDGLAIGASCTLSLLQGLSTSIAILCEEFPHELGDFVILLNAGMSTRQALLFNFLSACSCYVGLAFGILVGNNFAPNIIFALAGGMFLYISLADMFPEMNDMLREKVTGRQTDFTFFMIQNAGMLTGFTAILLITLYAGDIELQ
Method: Chondrocytes were maintained as a monolayer in Dulbecco's Modified Eagle's Medium (DMEM) supplemented with 10% fetal bovine serum (FBS) and antibiotics, and cells at culture day 2 were treated as indicated in each experiment.
as §1
Intracellular Zn^2+ was detected using the Zn^2+-selective fluorophore, FluoZin-3 AM (Invitrogen). […] Cells were then washed with Ca^2+- and Mg^2+-free phosphate-buffered saline (PBS) and incubated for an additional 30 minutes at 37° C. Intracellular Zn^2+ images were acquired with a fluorescence microscope, and population-wide fluorescence intensity was measured using a Spectramax Gemini microplate fluorescence reader (Molecular Devices) with excitation at 488 nm, cut-off at 515 nm, and emission at 530 nm.
as §3

[3] = test system: ZIP8; assay: Expression levels of metal ion transporters in chondrocytes treated with IL1β; type: cell-based; details: primary cultures of mouse articular chondrocytes
Excerpt: FIG. 1a represents mRNA levels of metal ion transporters determined by qRT-PCR in articular chondrocytes treated with IL1β (n=10). Insert is Western blotting of ZIP8 in chondrocytes treated with IL1β.
as §2

[4] = molecular target: T2, MTF1 (Mus musculus, UniProt Q07243); assay: MTF1 activity reporter gene assay and immunostaining in chondrocytes; type: cell-based; details: for inhibitory effects of TPEN on MTF1 transcriptional activity, effect of pre-incubation of TPEN with the metal salt: Ad-Zip8 chondrocytes, TPEN 1 μM pre-incubated with 1 μM metal ion; for MTF1 transcriptional activity, effect of the substance itself: chondrocytes, reporter gene assay
T2 construct: endogenous in cells; host or cells: primary mouse articular chondrocytes
Method: The MTF1 reporter gene assay kit was obtained from SABiosciences. Chondrocytes were transfected for 6 hours with a metal response element (MRE) reporter construct and a constitutive Renilla luciferase construct using Lipofectamine 2000 (Invitrogen). Transfected cells were infected with Ad-Mtf1 or Ad-Zip8 for 2 hours or treated with metal ions. Cells were harvested 24 hours after treatment, and firefly luciferase and Renilla luciferase activities were measured using a Dual Luciferase Assay System (Promega). […] MTF1 was detected by immunofluorescence microscopy. Images were acquired using a fluorescence microscope, and at least 200 cells were examined in multiple fields per condition to quantify the percentage of nuclear MTF1-positive cells.

[5] = test system: mouse knee joints; assay: Experimental OA induced by IA injection of adenovirus into mouse knee joints, histology and immunostaining; type: in vivo; details: 0.1 mg/kg body weight
Excerpt: Male mice (C57BL/6, Col2a1-Zip8 TG, Zip8^+/−, Zip8^fl/fl; Zip8^fl/fl; Col2a1-Cre, Mtf1^+/−, Mtf1^fl/fl, Mtf1^fl/fl; Col2a1-Cre, Mt1^−/−; Mt2^−/−) were used for experimental OA studies. Chondrocyte-specific Zip8 TG (Col2a1-Zip8) mice were generated using the Col2a1 promoter and enhancer. Zip8^+/− mice were obtained from The European Mouse Mutant Archive. The Mtf1 mouse strain used for this research project was created from an ES cell clone generated by the Wellcome Trust Sanger Institute and developed into mice by the KOMP Repository and the Mouse Biology Program at the University of California, Davis. Zip8^+/− and Mtf1^+/− mice were backcrossed with Actb-Flp1 TG mice (The Jackson Laboratory) to generate Zip8fl/fl and Mtf1fl/fl mice, respectively. These mice were then backcrossed with Col2a1-Cre TG mice (The Jackson Laboratory) to generate chondrocyte-specific CKO mice (Zip8^fl/fl; Col2a1-Cre and Mtf1^fl/fl; Col2a1-Cre). Mt1^−/−, Mt2^−/− double-KO mice were obtained from The Jackson Laboratory. […]
Human OA cartilage was frozen, sectioned at 10-μm thickness, and fixed in paraformaldehyde. Sulfate proteoglycan was detected with alcian blue staining. Human ZIP8 was detected by immunostaining. […] Sections were deparaffinized in xylene, hydrated with graded ethanol, and stained with safranin-O. Cartilage destruction was scored by two blinded observers using the OARSI grading system (Glasson et al., 2010). Synovitis was determined by safranin-O and hematoxylin staining, and synovial inflammation (grade 0-3) was scored as described previously (Yang et al., 2010). Osteophyte development was identified by safranin-O staining, and osteophyte maturity was quantified as described previously (Oh et al., 2012). Subchondral bone sclerosis was determined by measuring the thickness of the subchondral bone plate (Zhen et al., 2013). Antibodies used for immunostaining of cartilage sections are as follows: ZIP8 and MTF1 in human cartilage tissue sections were detected by antibodies obtained from Proteintech (20459-1-AP) and Novus (NBP1-86380), respectively. […]

[6] = chondrocytes infected with Ad-Zip8

T2 sequence (Q07243 whole entry): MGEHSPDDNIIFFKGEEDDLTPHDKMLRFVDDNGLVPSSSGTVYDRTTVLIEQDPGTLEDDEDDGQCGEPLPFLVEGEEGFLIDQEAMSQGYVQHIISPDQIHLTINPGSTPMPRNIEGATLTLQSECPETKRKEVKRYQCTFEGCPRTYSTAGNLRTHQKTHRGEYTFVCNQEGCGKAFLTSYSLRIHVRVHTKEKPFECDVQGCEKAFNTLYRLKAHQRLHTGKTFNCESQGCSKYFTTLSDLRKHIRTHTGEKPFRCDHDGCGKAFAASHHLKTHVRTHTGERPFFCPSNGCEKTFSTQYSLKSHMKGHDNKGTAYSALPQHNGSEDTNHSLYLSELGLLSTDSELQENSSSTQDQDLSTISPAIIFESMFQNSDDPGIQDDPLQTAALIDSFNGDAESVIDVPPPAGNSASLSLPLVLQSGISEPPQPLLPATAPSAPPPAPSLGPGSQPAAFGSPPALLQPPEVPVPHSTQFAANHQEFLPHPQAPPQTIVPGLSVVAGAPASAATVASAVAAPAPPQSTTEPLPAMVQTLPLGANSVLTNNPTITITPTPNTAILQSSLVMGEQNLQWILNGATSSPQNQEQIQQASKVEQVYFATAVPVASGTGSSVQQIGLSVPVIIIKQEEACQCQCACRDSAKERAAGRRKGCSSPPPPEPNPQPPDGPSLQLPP

Molecule: c1ccc(-c2ccccn2)nc1 [2,2-bipyridyl]
Ad-Zip8 (ZIP8)-induced upregulation of matrix-degrading enzymes, effect of the test agent [1, 6]: did not affect

cellular Zn^2+ level, effect of the substance itself [2]: caused an influx of Zn^2+
cellular Zn^2+ level, effect of the substance itself ([2]; listed as IL-1): increases
Molecule: IL1β: proinflammatory cytokine that promotes catabolism in arthritic cartilage
ZIP8 expression levels [3]: markedly increased

Molecule: [Cl][Cd][Cl] [CdCl2]
inhibitory effects of TPEN on the ZIP8-mediated expression of matrix-degrading enzymes, effect of pre-incubation of TPEN with the metal salt [1]: no significant effects
MMP12 expression ([1]; chondrocytes treated with metal ion): modest induction
expression of matrix-degrading enzymes caused by the substance itself [1]: did not cause a marked expression
expression of matrix-degrading enzymes caused by the substance itself ([1]; listed as Cd^2+): no significant effect
inhibitory effects of TPEN on MTF1 transcriptional activity, effect of pre-incubation of TPEN with the metal salt [4]: not
MTF1 transcriptional activity, effect of the substance itself [4]: moderate activation

Molecule: [Cl][Fe][Cl] [FeCl2]
inhibitory effects of TPEN on the ZIP8-mediated expression of matrix-degrading enzymes, effect of pre-incubation of TPEN with the metal salt [1]: no significant effects
expression of matrix-degrading enzymes caused by the substance itself [1]: moderate expression
inhibitory effects of TPEN on MTF1 transcriptional activity, effect of pre-incubation of TPEN with the metal salt [4]: not
MTF1 transcriptional activity, effect of the substance itself [4]: no effect

ZIP8-mediated increase in Zn^2+ influx [2]: abolished
IL1β-caused influx of Zn^2+ in chondrocytes, effect of the test agent [2]: blocked
MTF1 transcriptional activity in Ad-Zip8-infected chondrocytes, effect of the test agent ([4]; 800 MOI of Ad-Zip8, TPEN 1 μM): inhibitory effects
Molecule: c1ccc(CN(CCN(Cc2ccccn2)Cc2ccccn2)Cc2ccccn2)nc1 [TPEN, N,N,N′,N′-tetrakis (2-pyridylmethyl)ethylenediamine]
Ad-Mtf1-induced upregulation of matrix-degrading enzymes, effect of the test agent [1]: abolished
Ad-Zip8 (ZIP8)-induced upregulation of matrix-degrading enzymes, effect of the test agent [1, 6]: blocked
upregulation of MMP3, MMP13, and ADAMTS5 by IL1β, effect of the test agent [1]: abolished
Ad-Zip8-induced MMP expression, effect of co-injection [5]: significantly blocked
Ad-Zip8-induced cartilage destruction, effect of co-injection [5]: significantly blocked
Ad-Zip8-induced synovitis, effect of co-injection [5]: significantly blocked

Molecule: mithramycin-A
Ad-Zip8 (ZIP8)-induced upregulation of matrix-degrading enzymes, effect of the test agent [1]: significantly attenuated

Molecule: O=C(O)CN(CCN(CC(=O)O)CC(=O)O)CC(=O)O.[Ca] [CaEDTA, calcium-saturated EDTA]
ZIP8-mediated increase in Zn^2+ influx [2]: abolished
IL1β-caused influx of Zn^2+ in chondrocytes, effect of the test agent [2]: blocked
Ad-Mtf1-induced upregulation of matrix-degrading enzymes, effect of the test agent [1]: abolished
Ad-Zip8 (ZIP8)-induced upregulation of matrix-degrading enzymes, effect of the test agent [1, 6]: blocked
upregulation of MMP3, MMP13, and ADAMTS5 by IL1β, effect of the test agent [1]: abolished

Molecule: [Cl][Mn][Cl] [MnCl2]
inhibitory effects of TPEN on the ZIP8-mediated expression of matrix-degrading enzymes, effect of pre-incubation of TPEN with the metal salt [1]: no significant effects
expression of matrix-degrading enzymes caused by the substance itself [1]: did not cause a marked expression
inhibitory effects of TPEN on MTF1 transcriptional activity, effect of pre-incubation of TPEN with the metal salt [4]: not
MTF1 transcriptional activity, effect of the substance itself [4]: no effect
